Measured values reported in patent US11306098B2, “Substituted pyrrolo[1,2-a]pyrazines and pyrrolo[1,2-a][1,4]diazepines as TREX1 inhibitors” (VENENUM BIODESIGN, LLC, priority 2019, dated 2022).
Counter-ions that a name gives are not always drawn.

Columns and labels:
human TREX1 = human TREX1 (Homo sapiens (Human), UniProt Q9NSU2); assay: TREX1 Exonuclease Assay (human enzyme); assay type: biochemical; conditions: human TREX1 0.5 nM, FAM/BHQ1-labeled DNA oligonucleotide
Description: (§1) The TREX1 Exonuclease assay is an exemplary in vitro assay for measuring the activity of the TREX1 inhibitors of the present invention. In this assay, TREX1 exonuclease activity was evaluated by measuring the increase in fluorescence resulting from TREX1-catalyzed removal of a quencher from the 3′ end of a FAM-labeled DNA oligonucleotide (5′FAM-CCA CGA GAG CGT-BHQ1-3′). The assay was conducted using Wild Type (WT) human or murine TREX1 enzyme constructs corresponding to amino acids 55-297 of UniProt ID Q9NSU2-1 (SEQ ID NO: 1), or amino acids 1-242 of UniProt ID Q91XB0-1 (SEQ ID NO: 2), respectively. See, e.g., Example A.
(§2) For human TREX1, the nucleotide sequence of the gene construct was codon optimized for expression in the bacterial host. The sequence was incorporated into the pMAL-c5e vector (NEB) downstream of a solubility-promoting MBP (maltose binding protein) fusion partner. The fusion protein product was expressed in E. coli strain BL21 (DE3) (Millipore) and purified in a series of chromatographic steps. Initial steps were conducted using a dextrin sepharose affinity column followed by a Q-sepharose ion exchange column (both GE Healthcare). After the second column the MBP partner was removed by incubation with enterokinase (NEB). Further purification was carried out with the second application of a Q-sepharose column followed by a Superdex 75 (GE Healthcare) size exclusion column. Finally, a heparin sepharose column (GE Healthcare) was applied to remove contaminating nucleotides. Similar methods were used in the preparation of the murine TREX1 enzyme and are described in Example B set forth below.
(§3) To evaluate the effect of compounds on TREX1 activity, test compounds were serially diluted (11-point, 3-fold) from 10 mM stock solutions and delivered to 384-well low-volume assay plates in 80 nL DMSO using an acoustic dispenser. Next, 4 μL of human TREX1 (0.5 nM), or murine TREX1 (1 nM), diluted in assay buffer (20 mM Tris pH 7.5, 5 mM MgCl2, 100 μg/mL BSA, 0.002% Triton X-100, 2 mM DTT), was added to the assay plate. After incubating for 30 minutes, 4 μL of labeled DNA oligonucleotide (500 nM) in assay buffer was added to initiate TREX1 exonuclease activity. The reaction was allowed to proceed for 45 minutes at room temperature prior to the addition of 4 μL of 150 mM EDTA to halt TREX1 activity. Assay plates were equilibrated for an additional 30 minutes and read on an EnVision Plate Reader (Perkin Elmer) to measure fluorescence emission at 535 nm following excitation at 485 nm. Fluorescence was plotted as a function of log molar compound concentration and fit to four-parameter dose-response equation to determine compound IC50.

murine TREX1 = murine TREX1 (Mus musculus (Mouse), UniProt Q91XB0); assay: TREX1 Exonuclease Assay (murine enzyme); assay type: biochemical; conditions: murine TREX1 1 nM, FAM/BHQ1-labeled DNA oligonucleotide
Description: as §1, §2, §3

Sequence of murine TREX1 (Q91XB0 1-242): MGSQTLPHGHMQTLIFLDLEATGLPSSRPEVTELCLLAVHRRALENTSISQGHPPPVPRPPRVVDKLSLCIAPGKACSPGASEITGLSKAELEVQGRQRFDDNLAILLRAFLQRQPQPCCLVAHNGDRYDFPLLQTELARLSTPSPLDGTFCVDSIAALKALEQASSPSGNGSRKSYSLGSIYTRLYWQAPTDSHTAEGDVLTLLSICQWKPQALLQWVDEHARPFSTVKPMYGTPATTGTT
Sequence of human TREX1 (Q9NSU2 1-242): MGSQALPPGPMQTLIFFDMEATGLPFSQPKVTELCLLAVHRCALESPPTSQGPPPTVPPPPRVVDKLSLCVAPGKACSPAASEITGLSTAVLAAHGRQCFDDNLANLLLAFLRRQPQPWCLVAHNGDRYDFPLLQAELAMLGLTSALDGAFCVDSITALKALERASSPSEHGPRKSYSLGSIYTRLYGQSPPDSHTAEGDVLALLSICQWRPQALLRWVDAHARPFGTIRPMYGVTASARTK

| SMILES | IC50 (human TREX1) | IC50 (murine TREX1) |
| --- | --- | --- |
| CC(C)C[C@H](C(=O)NCc1ccccc1Cl)N1CCC(CCc2ccccc2)N2C[C@H](N)C[C@H]2C1=O (stereo partly shown) [Example 27] | 1 to 9.99 µM | 10 to 100 µM |
| CC(C)C[C@H](C(=O)NCc1ccc(Cl)c(Cl)c1)N1CCC(CCc2ccccc2)N(CCN)CC1=O (stereo partly shown) [Example 47] | 1 to 9.99 µM | 10 to 100 µM |
| N#CCC[C@H](C(=O)NCc1ccc(Cl)c(Cl)c1)N1CCC(CCc2ccccc2)N2C[C@H](N)C[C@H]2C1=O (stereo partly shown) [Example 45] | < 1 µM | < 1 µM |
| CC(C)C[C@H](C(=O)NS(=O)(=O)c1ccccc1)N1CCC(CCc2ccccc2)N2C[C@H](N)C[C@H]2C1=O (stereo partly shown) [Example 35] | 1 to 9.99 µM | 1 to 9.99 µM |
| CC(C)C[C@H](C(=O)NCc1cscn1)N1CCC(CCc2ccccc2)N2C[C@H](N)C[C@H]2C1=O (stereo partly shown) [Example 30] | 1 to 9.99 µM | 10 to 100 µM |
| CC(C)C[C@H](C(=O)NCc1ccc(Cl)c(Cl)c1)N1CC(CCc2ccccc2)N2C[C@H](N)C[C@H]2C1=O (stereo partly drawn) [Example 22, (2R)-2-((7R,8aS)-7-amino-1-oxo-4-phenethylhexahydropyrrolo[1,2-a]pyrazin-2(1H)-yl)-N-(3,4-dichlorobenzyl)-4-methylpentanamide.HCl] | 10 to 100 µM | 10 to 100 µM |
| CC(C)C[C@H](C(=O)NCc1cc(Cl)cc(Cl)c1)N1CCC(CCc2ccccc2)N2C[C@H](N)C[C@H]2C1=O (stereo partly shown) [Example 33] | < 1 µM | 1 to 9.99 µM |
| CC(C)C[C@H](C(=O)NCc1ccccc1)N1CCC(CCc2ccccc2)N2C[C@H](N)C[C@H]2C1=O (stereo partly shown) [Example 8] | 1 to 9.99 µM | 10 to 100 µM |
| Cc1nnc(CC[C@H](C(=O)NCc2ccc(Cl)c(Cl)c2)N2CCC(CCc3ccccc3)N3C[C@H](N)C[C@H]3C2=O)[nH]1 (stereo partly shown) [Example 48] | < 1 µM | < 1 µM |
| Cc1ccc(CNC(=O)[C@@H](CC(C)C)N2CCC(CCc3ccccc3)N3C[C@H](N)C[C@H]3C2=O)cc1 (stereo partly shown) [Example 9] | 1 to 9.99 µM | 1 to 9.99 µM |
| CC(C)C[C@H](C(=O)NCc1ccc(C(F)(F)F)cc1)N1CCC(CCc2ccccc2)N2C[C@H](N)C[C@H]2C1=O (stereo partly shown) [Example 6] | < 1 µM | < 1 µM |
| CC(C)C[C@H](C(=O)NCc1ccc(Cl)c(Cl)c1)N1CCC(CCc2ccccc2)N2C[C@H](N(C)C)C[C@H]2C1=O (stereo partly drawn) [Example 21, (2R)—N-(3,4-dichlorobenzyl)-2-((8R,9aS)-8-(dimethylamino)-1-oxo-5-phenethylhexahydro-1H-pyrrolo[1,2-a][1,4]diazepin-2(3H)-yl)-4-methylpentanamide HCl] | 10 to 100 µM | > 100 µM |
| CC(C)C[C@H](C(=O)NCc1ccc(Cl)c(Cl)c1)N1CCC(CCc2ccc(Cl)cc2)N2C[C@H](N)C[C@H]2C1=O (stereo partly shown) [Example 11] | < 1 µM | 1 to 9.99 µM |
| N[C@@H]1C[C@H]2C(=O)N([C@H](CCC(=O)O)C(=O)NCc3ccc(Cl)c(Cl)c3)CCC(CCc3ccccc3)N2C1 (stereo partly shown) [Example 14A] | 10 to 100 µM | 10 to 100 µM |
| CCC[C@H](CNS(=O)(=O)c1ccc(Cl)c(Cl)c1)N1CCC(CCc2ccccc2)N2C[C@H](N)C[C@H]2C1=O (stereo partly shown) [Example 40] | < 1 µM | 1 to 9.99 µM |
| CC(C)C[C@H](C(=O)NCc1ccc(Cl)c(Cl)c1)N1CCC(CS(=O)(=O)c2ccccc2)N2C[C@H](N)C[C@H]2C1=O (stereo partly shown) [Example 41] | 1 to 9.99 µM | 10 to 100 µM |
| N[C@@H]1C[C@H]2C(=O)N([C@H](CCC(=O)O)C(=O)NCc3ccc(Cl)c(Cl)c3)CCC(COc3ccccc3)N2C1 (stereo partly shown) [Example 17] | < 1 µM | < 1 µM |
| CC(C)C[C@H](C(=O)NCc1ccc(Cl)c(Cl)c1)N1CCC(Cc2ccccc2)N2C[C@H](N)C[C@H]2C1=O (stereo partly shown) [Example 10] | 1 to 9.99 µM | 1 to 9.99 µM |
| CC(C)C[C@H](C(=O)N(C)Cc1ccc(C(F)(F)F)cc1)N1CCC(CCc2ccccc2)N2C[C@H](N)C[C@H]2C1=O (stereo partly shown) [Example 7] | 1 to 9.99 µM | 1 to 9.99 µM |
| C[C@H](C(=O)NCc1ccc(C(F)(F)F)cc1)N1CCC(CCc2ccccc2)N2C[C@H](N)C[C@H]2C1=O (stereo partly shown) [Example 5] | < 1 µM | < 1 µM |
